According to article PMC2812684 (Biochimica et biophysica acta, 2009):
Read-outs that look alike come from different tables or passages of the source.

What was measured:
Type in all cases: cell-based
[1] = target: T1, succinate dehydrogenase (complex II) (Rattus norvegicus, UniProt Q920L2); conditions: for IC50: IC50 Complex II
[2] = target: T1, succinate dehydrogenase (complex II); test: Inhibition of respiration by 3-nitropropionic acid in whole; conditions: endogenous substrates
[3] = target: T2, cytochrome bc1 oxidoreductase (complex III) (Rattus norvegicus, UniProt P00159); test: Inhibition of respiration by antimycin A in whole; conditions: endogenous substrates
[4] = target: T2, cytochrome bc1 oxidoreductase (complex III); conditions: for decrease of IC50 with exogenous vs endogenous substrates: excess exogenous glutamate, malate, succinate

T1 sequence (Q920L2 whole entry, looked up, one chain of several): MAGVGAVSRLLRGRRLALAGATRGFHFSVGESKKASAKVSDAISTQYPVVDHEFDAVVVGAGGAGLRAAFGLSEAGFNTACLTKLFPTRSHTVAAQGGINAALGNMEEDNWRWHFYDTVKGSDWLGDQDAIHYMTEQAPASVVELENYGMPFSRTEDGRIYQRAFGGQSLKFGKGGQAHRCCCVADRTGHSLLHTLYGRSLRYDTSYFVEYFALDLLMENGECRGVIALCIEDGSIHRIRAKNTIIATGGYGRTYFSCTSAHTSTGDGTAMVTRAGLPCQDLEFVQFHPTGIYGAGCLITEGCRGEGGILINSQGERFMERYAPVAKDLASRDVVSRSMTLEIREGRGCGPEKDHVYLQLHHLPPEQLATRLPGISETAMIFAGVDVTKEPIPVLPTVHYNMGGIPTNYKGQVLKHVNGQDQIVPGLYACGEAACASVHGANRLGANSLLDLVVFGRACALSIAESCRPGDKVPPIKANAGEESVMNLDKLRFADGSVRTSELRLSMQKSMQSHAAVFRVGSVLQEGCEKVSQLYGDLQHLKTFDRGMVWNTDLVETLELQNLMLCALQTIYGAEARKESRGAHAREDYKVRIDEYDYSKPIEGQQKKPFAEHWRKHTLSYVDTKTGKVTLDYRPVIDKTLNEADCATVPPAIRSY

Compound	IC50 ([1]; MA) [mM]	IC50 ([1]; Old) [mM]	increase of IC50 with exogenous vs endogenous substrates ([1]; neurons from middle-age rats, complex I inhibited, excess exogenous succinate) [%]	decrease of IC50 with exogenous vs endogenous substrates ([1]; neurons from old rats, complex I inhibited, excess exogenous succinate) [%]	decrease of IC50 with age ([1]; old vs middle-age permeabilized neurons, exogenous substrates, insignificant) [%]	percent of initial rate remaining at flux point ([2]; 8 mM 3-NP, neurons from middle-age rats) [%]	increase of IC50 with age ([2]; old vs middle-age neurons, insignificant) [%]	IC50 ([3]; IC50 Complex III, Old, neurons from old (24 month) rats) [mM]	decrease of IC50 with age ([3]; old vs middle-age neurons, p=0.006) [%]	decrease of IC50 with exogenous vs endogenous substrates ([4]; neurons from middle-age rats) [%]	decrease of IC50 with exogenous vs endogenous substrates ([4]; neurons from old rats) [%]	decrease of IC50 with age ([4]; old vs middle-age permeabilized neurons, exogenous substrates, p=0.0001) [%]
O=C(O)CC[N+](=O)[O-] [3-NP, 3-nitropropionic acid]	6.1	2.1	7	75	66	39	49	–	–	–	–	–
CCCCCC[C@H]1C(=O)O[C@H](C)[C@H](NC(=O)c2cccc(NC=O)c2O)C(=O)O[C@@H](C)[C@@H]1OC(=O)CC(C)C [antimycin A]	–	–	–	–	–	–	–	0.00016	35	46	68	60
